Legend:
purple nutsedge = experiment: Test B pre/postemergence purple nutsedge; format: in vivo, Cyperus rotundus
Method in brief: (§1)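 Test chemicals in a non-phytotoxic solvent mixture with surfactant were sprayed preemergence onto planted seeds and postemergence onto plants 2 to 18 cm tall (1- to 4-leaf stage). After twelve to sixteen days in a greenhouse, injury was visually rated against untreated controls from 0 (no effect) to 10 (complete control).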

morningglory = experiment: Test B pre/postemergence morningglory; format: in vivo, Ipomoea hederacea
Method in brief: as §1

bamyardgrass = experiment: Test B flood test barnyardgrass; format: in vivo, Echinochloa crus-galli
Method in brief: (§2)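 Each value is a visual injury score relative to controls, with 10 meaning complete control and 0 no effect. Evaluation took place twelve to sixteen days after the 2-leaf-stage plants were treated and kept in the greenhouse.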

duck salad = experiment: Test B flood test duck salad; format: in vivo, Heteranthera limosa
Method in brief: as §2

surinam grass = experiment: Test B pre/postemergence surinam grass; format: in vivo, Brachiaria decumbens
Method in brief: as §1

soybean = experiment: Test B pre/postemergence soybean; format: in vivo, Glycine max
Method in brief: as §1

velvetleaf = experiment: Test B pre/postemergence velvetleaf; format: in vivo, Abutilon theophrasti
Method in brief: as §1

rape = experiment: Test B pre/postemergence rape; format: in vivo, Brassica napus
Method in brief: as §1

pigweed = experiment: Test B pre/postemergence pigweed; format: in vivo, Amaranthus retroflexus
Method in brief: as §1

crabgrass = experiment: Test B pre/postemergence crabgrass; format: in vivo, Digitaria sanguinalis
Method in brief: as §1

blackgrass = experiment: Test B pre/postemergence blackgrass; format: in vivo, Alopecurus myosuroides
Method in brief: as §1

wheat = experiment: Test B pre/postemergence wheat; format: in vivo, Triticum aestivum
Method in brief: as §1

giant foxtail = experiment: Test B pre/postemergence giant foxtail; format: in vivo, Setaria faberii
Method in brief: as §1

sugar beet = experiment: Test B pre/postemergence sugar beet; format: in vivo, Beta vulgaris
Method in brief: as §1

rice = experiment: Test B flood test rice; format: in vivo, Oryza sativa
Method in brief: as §2

cocklebur = experiment: Test B pre/postemergence cocklebur; format: in vivo, Xanthium strumarium
Method in brief: as §1

smallflower flatsedge = experiment: Test B flood test smallflower flatsedge; format: in vivo, Cyperus difformis
Method in brief: as §2

corn = experiment: Test B pre/postemergence corn; format: in vivo, Zea mays
Method in brief: as §1

wild oat = experiment: Test B pre/postemergence wild oat; format: in vivo, Avena fatua
Method in brief: as §1

[1] = Postemergence, Rate 125 g/ha, scale of 0 to 10 where 0 is no effect and 10 is complete control
[2] = Postemergence, Rate 250 g/ha, scale of 0 to 10, 0 is no effect, 10 is complete control
[3] = Preemergence, Rate 125 g/ha, scale of 0 to 10 where 0 is no effect and 10 is complete control
[4] = Preemergence, Rate 250 g/ha, scale 0 to 10 (0 no effect, 10 complete control)
[5] = Preemergence, Rate 500 g/ha, scale of 0 to 10 where 0 is no effect and 10 is complete control
[6] = Rate 1000 g/ha, Preemergence, scale 0 to 10 (0 no effect, 10 complete control)
[7] = Postemergence, Rate 500 g/ha, scale of 0 to 10 where 0 is no effect and 10 is complete control
[8] = Postemergence, Rate 1000 g/ha, scale 0 to 10 (0 no effect, 10 complete control)
[9] = Pre-emergence, Rate 1000 g/ha, scale 0 to 10 (0 no effect, 10 complete control)
[10] = Rate 125 g/ha, under heading Pre-emergence, flood test species, visual evaluation after twelve to sixteen days
[11] = Rate 250 g/ha, Pre-emergence (flood test species), scale 0 to 10, 0 is no effect, 10 is complete control
[12] = Rate 500 g/ha, Pre-emergence section of Table B, 0 to 10 scale (0 no effect, 10 complete control)

COC(=O)C(C)n1c(=O)on(C(=O)N(c2ccc(Cl)cc2)C(C)C)c1=O (stereo not drawn) [Compound 623]
Plant response rating, Nutsedge (purple nutsedge; [1]): 0 | Nutsedge plant response rating (purple nutsedge; [2]): 0 | Nutsedge plant response rating (purple nutsedge; [3]): 0 | Plant response rating, Nutsedge (purple nutsedge; [4]): 0 | Plant response rating, Nutsedge (purple nutsedge; [5]): 0 | Plant response rating, Nutsedge (purple nutsedge; [6]): 0 | Plant response rating, Morningglory (morningglory; [1]): 6 | Morningglory plant response rating (morningglory; [2]): 8 | Plant response rating, Morningglory (morningglory; [7]): 10 | Morningglory plant response rating (morningglory; [8]): 10 | Morningglory plant response rating (morningglory; [3]): 0 | Plant response rating, Morningglory (morningglory; [4]): 0 | Plant response rating, Morningglory (morningglory; [5]): 0 | Plant response rating, Morningglory (morningglory; [6]): 0 | Barnyardgrass plant response rating (bamyardgrass; [9]): 0 | Barnyardgrass plant response rating (0 to 10 scale, 0 is no effect, 10 is complete control) (bamyardgrass; [10]): 0 | Barnyardgrass plant response rating (bamyardgrass; [11]): 0 | Barnyardgrass plant response rating (bamyardgrass; [12]): 0 | Ducksalad plant response rating (duck salad; [9]): 0 | Ducksalad plant response rating (0 to 10 scale, 0 is no effect, 10 is complete control) (duck salad; [10]): 0 | Ducksalad plant response rating (duck salad; [11]): 0 | Ducksalad plant response rating (duck salad; [12]): 0 | Plant response rating, B. signalgrass (surinam grass; [1]): 0 | B. signalgrass plant response rating (surinam grass; [2]): 0 | Plant response rating, B. signalgrass (surinam grass; [7]): 0 | B. signalgrass plant response rating (surinam grass; [8]): 0 | B. signalgrass plant response rating (surinam grass; [3]): 0 | Plant response rating, B. signalgrass (surinam grass; [4]): 0 | Plant response rating, B. signalgrass (surinam grass; [5]): 2 | Plant response rating, B. signalgrass (surinam grass; [6]): 4 | Plant response rating, Soybean (soybean; [1]): 0 | Soybean plant response rating (soybean; [2]): 0 | Soybean plant response rating (soybean; [8]): 3 | Soybean plant response rating (soybean; [3]): 0 | Plant response rating, Soybean (soybean; [4]): 0 | Plant response rating, Soybean (soybean; [5]): 0 | Plant response rating, Soybean (soybean; [6]): 0 | Plant response rating, Velvetleaf (velvetleaf; [1]): 0 | Velvetleaf plant response rating (velvetleaf; [2]): 0 | Velvetleaf plant response rating (velvetleaf; [8]): 2 | Velvetleaf plant response rating (velvetleaf; [3]): 0 | Plant response rating, Velvetleaf (velvetleaf; [4]): 0 | Plant response rating, Velvetleaf (velvetleaf; [5]): 0 | Plant response rating, Velvetleaf (velvetleaf; [6]): 0 | Plant response rating, Rape (rape; [1]): 0 | Rape plant response rating (rape; [2]): 0 | Plant response rating, Rape (rape; [7]): 0 | Rape plant response rating (rape; [8]): 0 | Rape plant response rating (rape; [3]): 0 | Plant response rating, Rape (rape; [4]): 0 | Plant response rating, Rape (rape; [5]): 2 | Plant response rating, Rape (rape; [6]): 2 | Plant response rating, Redroot pigweed (pigweed; [1]): 0 | Redroot pigweed plant response rating (pigweed; [2]): 0 | Redroot pigweed plant response rating (pigweed; [8]): 5 | Redroot pigweed plant response rating (pigweed; [3]): 0 | Plant response rating, Redroot pigweed (pigweed; [4]): 0 | Plant response rating, Redroot pigweed (pigweed; [5]): 0 | Plant response rating, Redroot pigweed (pigweed; [6]): 5 | Plant response rating, Crabgrass (crabgrass; [1]): 0 | Crabgrass plant response rating (crabgrass; [2]): 0 | Plant response rating, Crabgrass (crabgrass; [7]): 0 | Crabgrass plant response rating (crabgrass; [8]): 3 | Crabgrass plant response rating (crabgrass; [3]): 0 | Plant response rating, Crabgrass (crabgrass; [4]): 0 | Plant response rating, Crabgrass (crabgrass; [6]): 0 | Plant response rating, Blackgrass (blackgrass; [1]): 3 | Blackgrass plant response rating (blackgrass; [2]): 4 | Plant response rating, Blackgrass (blackgrass; [7]): 6 | Blackgrass plant response rating (blackgrass; [8]): 7 | Blackgrass plant response rating (blackgrass; [3]): 0 | Plant response rating, Blackgrass (blackgrass; [4]): 0 | Plant response rating, Blackgrass (blackgrass; [6]): 2 | Plant response rating, Wheat (wheat; [1]): 0 | Wheat plant response rating (wheat; [2]): 1 | Wheat plant response rating (wheat; [8]): 1 | Wheat plant response rating (wheat; [3]): 0 | Plant response rating, Wheat (wheat; [4]): 0 | Plant response rating, Wheat (wheat; [5]): 0 | Plant response rating, Wheat (wheat; [6]): 3 | Plant response rating, Giant foxtail (giant foxtail; [1]): 0 | Giant foxtail plant response rating (giant foxtail; [2]): 0 | Plant response rating, Giant foxtail (giant foxtail; [7]): 0 | Giant foxtail plant response rating (giant foxtail; [8]): 2 | Giant foxtail plant response rating (giant foxtail; [3]): 7 | Plant response rating, Giant foxtail (giant foxtail; [4]): 8 | Plant response rating, Giant foxtail (giant foxtail; [5]): 9 | Plant response rating, Giant foxtail (giant foxtail; [6]): 9 | Plant response rating, Sugarbeets (sugar beet; [1]): 0 | Sugarbeets plant response rating (sugar beet; [2]): 0 | Sugarbeets plant response rating (sugar beet; [8]): 0 | Sugarbeets plant response rating (sugar beet; [3]): 0 | Plant response rating, Sugarbeets (sugar beet; [4]): 0 | Plant response rating, Sugarbeets (sugar beet; [5]): 2 | Plant response rating, Sugarbeets (sugar beet; [6]): 7 | Rice plant response rating (rice; [9]): 0 | Rice plant response rating (0 to 10 scale, 0 is no effect, 10 is complete control) (rice; [10]): 0 | Rice plant response rating (rice; [11]): 0 | Rice plant response rating (rice; [12]): 0 | Plant response rating, Cocklebur (cocklebur; [1]): 0 | Cocklebur plant response rating (cocklebur; [2]): 0 | Plant response rating, Cocklebur (cocklebur; [7]): 0 | Cocklebur plant response rating (cocklebur; [8]): 0 | Cocklebur plant response rating (cocklebur; [3]): 0 | Plant response rating, Cocklebur (cocklebur; [4]): 0 | Plant response rating, Cocklebur (cocklebur; [5]): 0 | Plant response rating, Cocklebur (cocklebur; [6]): 0 | S. Flatsedge plant response rating (smallflower flatsedge; [9]): 0 | S. Flatsedge plant response rating (0 to 10 scale, 0 is no effect, 10 is complete control) (smallflower flatsedge; [10]): 0 | S. Flatsedge plant response rating (smallflower flatsedge; [11]): 0 | S. Flatsedge plant response rating (smallflower flatsedge; [12]): 0 | Plant response rating, Corn (corn; [1]): 0 | Corn plant response rating (corn; [2]): 0 | Plant response rating, Corn (corn; [7]): 0 | Corn plant response rating (corn; [8]): 0 | Corn plant response rating (corn; [3]): 0 | Plant response rating, Corn (corn; [4]): 0 | Plant response rating, Corn (corn; [5]): 0 | Plant response rating, Corn (corn; [6]): 0 | Plant response rating, Wild oats (wild oat; [1]): 0 | Wild oats plant response rating (wild oat; [2]): 0 | Wild oats plant response rating (wild oat; [8]): 2 | Wild oats plant response rating (wild oat; [3]): 0 | Plant response rating, Wild oats (wild oat; [4]): 0 | Plant response rating, Wild oats (wild oat; [5]): 2 | Plant response rating, Wild oats (wild oat; [6]): 2

Source: patent publication US6737383B1, “Herbicidal oxadiazolidines” (priority 1999, dated 2004)
